Reference: patent US8173709B2, “Anti-infective methods for treating pathogen-induced disordered tissues” (priority 1999, dated 2012)
Entries after “also recorded” stand apart in the source; their conditions may differ. Read-outs that look alike come from different tables or passages of the source.

Assays:
[1] = test system: Vaccinia virus (WR strain); set-up: species or system mice; conditions: mouse, in vivo
[2] = test system: vaccinia virus; assay type: in vivo, mice; conditions: more vigorous rubbing in; treatment continued until death
[3] = test system: Vaccinia virus (WR strain); set-up: species or system mice; conditions: mouse, in vivo; remark: listed apart in the source

**Q.** How did the Survivors/Total [1] turn out when benzalkonium chloride was run?
**A.** 0/10

**Q.** And the protection from death [1]?
**A.** No protection from death

**Q.** And the “benefit in terms of survival or suppressing lesion severity” value [2]?
**A.** no benefit

**Q.** And the Survivors/Total [3]?
**A.** 0/10

**Q.** What about the “mean day of death / survival time compared to water” value [3] of the same substance?
**A.** longer than those respective groups treated with water, but the results were not statistically significant; also recorded: slightly longer survival times

**Q.** And the protection from death [3]?
**A.** No protection from death
